Experimental data published in patent publication US20230320995A1, “IONIZABLE CATIONIC LIPIDS AND LIPID NANOPARTICLES” (CAPSTAN THERAPEUTICS, INC., priority 2022, published 2023).

How the values were obtained:
[1] = physical-chemical properties of CD5-targeted tLNP encapsulating mCherry mRNA; type: physicochemical; settings: for Hydrodynamic diameter: anti-CD5 tLNP: ionizable lipid/DSPC/cholesterol/DMG-PEG 2000/DSPE-PEG2000-Maleimide 50:10:38.5:1.4:0.1
Description: CleanCap® mCherry 5-methoxyuridine (5moU) mRNA (L-7203) was purchased from TriLink. mRNA was encapsulated in LNP using a self-assembly process in which an aqueous solution of mRNA at pH=3.5 is rapidly mixed with a solution of lipids dissolved in ethanol, then followed by stepwise phosphate and Tris buffer dilution and TFF purification. LNP composition in this study was: ionizable cationic lipid/distearoylphosphatidylcholine/cholesterol/DMG-PEG 2000/distearoylphosphatidyl ethanolamine(DSPE)-PEG2000-Maleimide (50:10:38.5:1.4:0.1 mol/mol) and were encapsulated at an N/P ratio (the ratio of positively-chargeable […] amine (N=nitrogen) groups to negatively-charged nucleic acid phosphate (P) groups) at 6. The hydrodynamic diameter of the nanoparticles was measured by dynamic light scattering using a Zetasizer Nano ZS (Malvern Instruments Ltd., Malvern, UK) instrument.
Next, an anti-CD5 mAb was conjugated to the above LNP to generate tLNP. Purified rat anti-mouse CD5 antibody, clone 53-7.3 (BioLegend), was coupled to LNP via N-succinimidyl S-acetylthioacetate (SATA)-maleimide conjugation chemistry. Briefly, LNPs with DSPE-PEG(2000)-maleimide incorporated were formulated and stored at 4° C. on the day of conjugation. The antibody was modified with SATA (Sigma-Aldrich) to introduce sulfhydryl groups at accessible lysine residues allowing conjugation to maleimide. SATA was deprotected using 0.5 M hydroxylamine followed by removal of the unreacted components by G-25 Sephadex Quick Spin Protein columns (Roche Applied Science, Indianapolis, IN). The reactive sulfhydryl group on the antibody was then conjugated to maleimide moieties on the LNPs using thioether conjugation chemistry. Purification was performed using Sepharose CL-4B gel filtration columns (Sigma-Aldrich). tLNPs (LNPs conjugated with a targeting antibody) were frozen at −80° C. Others have conjugated antibody to free functionalized PEG-lipid and then incorporated the conjugated lipid into pre-formed LNP.
mRNA content was determined using a Quant-iT™ RiboGreen RNA assay kit (Invitrogen™). Encapsulation efficiency was calculated by determining the unencapsulated mRNA content by measuring the fluorescence intensity (Fi) upon the addition of RiboGreen reagent to the LNP and comparing this value to the total fluorescence intensity (Ft) of the RNA content that is obtained upon lysis of the LNPs by 1% Triton X-100, where % encapsulation=(Ft−Fi)/Ft x 100).
The particle size (hydrodynamic diameter) and polydispersity index of the targeted lipid nanoparticles were determined using dynamic light scattering (DLS) on a Malvern Zetasizer Nano ZS (Malvern Instruments, Worcestershire, UK). Size measurement was carried out in pH 7.4 Tris buffer at 25° C. in relevant disposable capillary cells. A non-invasive back scatter system (NIBS) with a scattering angle of 173° was used for size measurements.

mouse splenic T cells = assay: targeted transfection of T cells in vitro with CD5-targeted tLNP; type: cell-based; settings: activated mouse splenic T cells, 0.6 μg tLNP per well; for transfection rate (proportion of CD3+ cells mCherry positive): 1 hour, read next day
Protocol: To assess the performance of tLNP described in Example 35 they were used to transfect mouse T cells in tissue culture. Mouse splenic T cells were isolated from mechanically dissociated mouse spleens using a standard T cell isolation kit (Stem Cell Technologies #19851). Isolated T cells were cultured in complete RPMI medium supplemented with murine interleukin-2 in the presence of CD3/CD28 T cell activation beads (Gibco #11453D) for 3 days. Following activation, T cells were magnetically separated from the activation beads and transferred to a 96-well plate at a concentration of 2×10^5 cells per well in 100 μL of complete RPMI medium. tLNP formulations as described in Example 35 (above) were diluted to 100 μg/mL and 6 μL (0.6 μg) of tLNP was added to each well of cells to be tested. Cells were incubated with tLNPs at 37° C. for 1 hour before tLNPs were washed away by centrifuging the plate, removing the supernatant, and replacing with fresh medium. Transfected cells were then returned to the incubator overnight. The next day, cells were washed and resuspended in stain buffer containing fluorescently tagged antibodies against T cells markers for 30 minutes before a final wash. After washing, cells were resuspended in stain buffer and run on the Novocyte Quanteon flow cytometer to detect mCherry expression as well as murine T cell markers. Results for CD3^+ T cells are depicted in FIG. 6.

[2] = ex vivo stability in mouse plasma; type: in vitro ADME; settings: 37° C.; for ex vivo Mouse Plasm Stability % Remaining at 2 Hours: CD-1 mouse plasma, 1 μM lipid
Protocol: To determine the stability of the disclosed lipids in mouse plasma lipid stock solution was prepared by dissolution of the lipid in isopropanol at the concentration of 5 mg/mL. A requisite volume of the lipid-isopropanol solution was then diluted to 100 μM concentration at a total volume of 10.0 mL with 50:50 (v/v) ethanol/water. Ten microliters of this 100 μM solution was spiked into 10.0 mL of mouse plasma (BioIVT, Lot MSE394920, CD-1 mouse, anticoagulant: sodium heparin, not filtered) that was prewarmed to 37° C. and stirred at 50 rpm with a magnetic stir bar. The starting concentration of lipids in plasma was thus 1 μM. Aliquots (50 μL) were taken after 0, 15, 30, 45, 60, and 120 minutes, transferred to microcentrifuge tubes and quenched with three volumes (150 μL) of ice cold acetonitrile/methanol (4:1). Positive control incubations utilized the same plasma, with Benfluorex (1 μM) as the substrate with Labetalol (1.0 μgl) as the in situ disappearance. The quenched solutions were vortexed, centrifuged for 5 minutes at 13,000 rpm, and supernatant (100 μL) transferred to a 96-well plate and diluted with water (200 μL, 0.1% FA). After filtration through a 0.45 μm 96-well filtering plate, the filtrates were analyzed by LC-MS (Waters AQUITY I-class UPLC system, ThermoScientific Vanquish UPLC system consisting of a binary pump, autosampler, and column compartment, Waters Xevo G2-XS QT of mass spectrometer; Phenomenex F5, 1.7 μm, 2.1×50 mm column). Mobile phase A was 0.1% formic acid in water, and mobile phase B was 0.1% formic acid in acetonitrile. The flow rate was 0.6 mL/min. Elution gradient was as follows: time, 0.5 min: 20% B; 0.5-2 min: 20-100% B; 2-4.8 min: 100% B; 4.8-5.45 min: 100-20% B. Mass spectrometry was in positive scanning mode from 600-1100 m/z. The peak of the molecular ion of the lipids was integrated in extracted ion chromatography (XIC) using Xcalibur software (Thermo Fisher). The relative peak area compared to T=0, after normalization by the peak area of the internal standard, was used as the percentage of the lipid remaining at each time point. T1/2 values were calculated using the first-order decay model.

PDI (polydispersity index) ([1]; anti-CD5 tLNP, DLS)	Encapsulation Efficiency ([1]; anti-CD5 tLNP, RiboGreen assay)	SMILES	Hydrodynamic diameter ([1]; DLS)	transfection rate (proportion of CD3+ cells mCherry positive) (mouse splenic T cells)	ex vivo Mouse Plasm Stability % Remaining at 2 Hours [2]	level of mCherry expression (MFI) (mouse splenic T cells)	half-life at 1 μM ([2]; CD-1, mouse plasma)
0.20	99%	CCCCCCCCCC(=O)OCC(COC(=O)CCCCCCCCC)CC(=O)OCCN(CCOC(=O)CC(COC(=O)CCCCCCCCC)COC(=O)CCCCCCCCC)C(=O)NCCCN(C)C [Compound A-2]	105 nm	poor, but still positive	72%	–	–
–	–	CCCCCCCCC(=O)OCC(COC(=O)CCCCCCCC)CC(=O)OCCN(CCOC(=O)CC(COC(=O)CCCCCCCC)COC(=O)CCCCCCCC)C(=O)OCCN(C)C [Compound A-11]	93 nm	~80%	86%	high level of expression	< 600 min
